Data set [1] has as its system APE1. Nature of the data set: APE1 expression (immunoblotting) after siRNA. To be noted: 100 nM siRNA. The data set is classed as cell-based, rat. Here is the method: Small interfering RNAs to APE1 (APE1siRNA) and scrambled siRNA (SCsiRNA) controls were used to decrease APE1 protein expression in sensory neuronal cell cultures and as controls, respectively, as described previously (Vasko et al., 2005, Jiang et al., 2008a). On day 3 in culture, the growth media was replaced with 0.5 ml of Opti-MEM 1 media containing 100 nM of APE1siRNA (5′-[…]-3′ (SEQ ID NO:1)) or SCsiRNA (5′-[…]-3′(SEQ ID NO:2)); (Vasko et al., 2005)) and 10 μl of the transfecting reagent, Neuroporter. On the next day, 0.5 ml of the growth media without antibiotics was added to each well, and after an additional 24 hours the media containing siRNA was replaced with normal growth media.
Tissues or cells were harvested, lysed in RIPA buffer (Santa Cruz Biotechnology; Santa Cruz, Calif., USA), sonicated, and cleared of cellular debris by centrifuging at 4000 RPM for 2 minutes. Protein was quantified using Lowry assay, and electrophoresed in a 12% SDS-polyacrylamide gel. […] Antibody binding was detected following appropriate secondary antibody methods using chemiluminescence. The density of the bands was measured using Quantity One software from Bio-Rad (Hercules, Calif.) and data expressed as density normalized to vinculin.

The next data set has as its system NFκB. Nature of the data set: NF-κB luciferase reporter transactivation assay. The data set is classed as cell-based. The settings on record: read-out: inhibition of NFκB binding to the reporter construct, IC50. Here is the method:
Reporter assays were performed as previously described (Georgiadis et al., 2008; Kelley et al., 2011; Cardoso et al., 2012b; Luo et al., 2012). Cells were transfected with NF-κB-Luciferase construct containing an NF-κB-response promoter and driving the expression of a luciferase gene and a Renilla luciferase control reporter vector pRL-CMV. After a 24-hour transfection period, cells were lysed, and Firefly and Renilla luciferase activities were assayed using Renilla luciferase activity for normalization. All of the transfection experiments were performed in triplicate and repeated at least three times in independent experiments. Data are expressed as mean±standard error from a representative experiment, and Student's t tests were performed.
Background: Reporter assays use an easily measured gene product as a stand-in for the process of interest.

Another data set is described as follows: Pharmacokinetics (PK). The settings on record: in vivo. On the procedure:
(§1) PK studies were performed in the IU Simon Cancer Center Clinical Pharmacology Analytical Core (CPAC), as previously described for E3330 (Fishel et al., 2011) and standards for the compounds used. P450 metabolism studies using human microsomes were also performed in CPAC directed by Dr. David Jones.

Data set [2] is described as follows: P450 metabolism analysis using human microsomes. The settings on record: human. The class given is in vitro ADME. Here is the method: as §1
The subject of the next data set is human microsomes. Nature of the data set: P450 metabolism analysis using human microsomes. The class given is in vitro ADME. The settings on record: vs E3330. On the procedure:
as §1

Data set [3] deals with sensory neuronal cultures. Nature of the data set: Neuronal cell viability (trypan blue exclusion). The data set is classed as cell-based. On the procedure:
(§2) Primary cultures of sensory neurons were harvested and maintained as previously described (Vasko et al., 2005). Briefly, adult male Sprague-Dawley rats (150-175 g; Harlan, Indianapolis, Ind.) were euthanized by CO2 asphyxiation and dorsal root ganglia (DRG) dissected from all spinal levels, transferred to into a collagenase solution (1 mg/ml), incubated for 1 hour at 37° C., then dissociated by mechanical agitation. Approximately 30,000 cells or 60,000 cells were plated into each well of 12-well or 6-well culture plates, respectively. All culture dishes were precoated with poly-D-lysine and laminin. Cells were maintained in F-12 media supplemented with 10% horse serum, 2 mM glutamine, 100 μg/ml Normocin™, 50 μg/ml penicillin, 50 μg/ml streptomycin, 50 μM 5-fluoro-2′-deoxyuridine (Invitrogen), 150 μM uridine, and 30 ng/ml of NGF in 3% CO2 at 37° C. Growth medium was changed every other day. Experiments were performed after cells were maintained in culture for 12-14 days.
Sensory neuronal culture trypan blue exclusion analysis was performed as previously described (Vasko et al., 2011). Cells were detached by adding a 0.05% trypsin-EDTA solution and media to each well. An equal volume of 0.4% (w/v) trypan blue in PBS was added to the cell suspension and the numbers of living cells (i.e., those that exclude the dye) were counted under a phase contrast microscope using a hemacytometer. Percent survival was calculated as the percent of live cells divided by the total cell number (including dead and live cells).

For data set [4], the target named is T1, APE1 (Homo sapiens, UniProt P27695). Nature of the data set: AP endonuclease DNA repair assay. The class given is biochemical. The settings on record: APX2009 in the nanomolar range. Here is the method:
Inhibition or enhancement of APE1 DNA repair endonuclease activity was performed as previously described (Bapat et al., 2010). The APE1 repair activity assay was performed in a plate assay using two annealed oligonucleotides (5′-6-FAM-GCCCCC*[…]-3′ (SEQ ID NO:3) and 3′-Q-[…]-5′ (SEQ ID NO:4)) containing a quencher on one strand and a fluorescent 6-FAM label with tetrahydrofuran as an AP site mimic. Oligo cleavage at the AP mimic site results in 6-FAM release and detection. The fluorescence was read at five, one-minute intervals using a Tecan Ultra plate reader (Chemical Genomics Core, Indiana University School of Medicine). The rate of the reaction was used to determine the change in APE1 repair activity as compared to the vehicle control.

Data set [5] has as its system sensory neurons in culture. The class given is cell-based, rat. Here is the method: as §2
For release experiments, cell cultures were washed with HEPES buffer consisting of (in mM) 25 HEPES, 135 NaCl, 3.5 KCl, 2.5 CaCl2, 1 MgCl2, 3.3 D-glucose, and 0.1% bovine serum albumin, pH 7.4 and maintained at 37° C. They then were incubated for successive 10-minute intervals with 0.4 ml of HEPES buffer alone (basal release), with buffer containing 30 nM capsaicin, then with buffer alone (to assess return to basal release). After each incubation, the buffer was removed and the amount of immunoreactive calcitonin-gene related peptide (CGRP) in each sample was measured using radioimmunoassay (RIA) as previously described (Chen et al., 1996). At the end of the release protocol, CGRP is extracted from the cultures and total content measured using RIA.

The test system of data set [6] is sensory neuronal cultures. Nature of the data set: phospho-H2AX immunoblotting in sensory neuronal cultures (Example 3). The class given is cell-based, rat. Here is the method: as §2
Immunoblotting was performed as previously described (Kelley et al., 2014). Briefly, cells were lysed in RIPA buffer (Santa Cruz Biotechnology; Santa Cruz, Calif., USA) and protein was quantified using the Lowey assay. Proteins were separated by electrophoresis on a 4-12% SDS-polyacrylamide gel. The gel was transferred to a PVDF membrane and incubated overnight at 4° C. in Tris-buffered saline containing 0.1% Tween-20 (TBST) and 5% nonfat dry milk while gently agitating. Mouse monoclonal antihuman Ape1 antibodies (1:500), mouse monoclonal anti-phospho H2AX antibodies (1:1000), or (3-Actin monoclonal antibody (1:1000) were added to the blocking solution and incubated overnight at room temperature while gently agitating. Antibody binding was detected following appropriate secondary antibody methods using chemiluminescence. The density of the bands was measured using QUALITYONE® software from Bio-Rad (Hercules, Calif.) and data expressed as density normalized to actin.
On the technique in general: Immunoblotting shows a protein as a band on a membrane.

For data set [7], the system named is Pa03C patient-derived PDAC cells. Nature of the data set: Tumor and CAF 3D co-cultures, tumor cells. The class given is cell-based, human. The settings on record: tumor alone or co-cultured with CAFs, 12 days in culture, vs vehicle control. The source says:
(§3) Patient-derived tumor cells and CAF19 cells were a kind gift from Dr. Anirban Maitra (The Johns Hopkins University M.D. Anderson Cancer Center) (Jones et al., 2008). All cell lines were authenticated via STR analysis (IDEXX BioResearch) and checked routinely for mycoplasma contamination. Ultra low attachment 96-well plates (Corning Inc., Life Sciences) were used to generate 3-dimensional tumor spheroids in the presence and absence of CAFs, as described previously (Sempere et al., 2011; Arpin, 2015). TdTomato-labeled PDAC cells and EGFP-labeled CAFs are resuspended in colorless DMEM media containing 3% Reduced Growth Factor Matrigel (BD Biosciences) and 5% FBS at a cell ratio of 1:4 (tumor:CAF) and fed on days 4 and 8 following plating. Both cell populations are quantitated for intensity and area via Thermo ArrayScan at day 12 of co-culture.

The test system of the next data set is CAF19 cells. Nature of the data set: Tumor and CAF 3D co-cultures, CAFs. The class given is cell-based, human. The settings on record: co-culture with tumor cells, 12 days in culture.
Description: as §3

For data set [8], the target named is T1, APE1. Nature of the data set: redox APE1 electrophoretic mobility shift assay (EMSA). The data set is classed as biochemical. More on the design: Purified APE1 was reduced with 1.0 mM DTT for 10 minutes. To be noted: read-out: redox inhibition IC50. Here is the method: EMSAs were performed as described (Luo et al., 2012). Purified APE1 was reduced with 1.0 mM DTT for 10 minutes and diluted to a final concentration of 0.006 mM with 0.02 mM DTT in PBS. Reduced APE1 was added to EMSA reaction buffer (10 mM Tris (pH 7.5), 50 mM NaCl, 1 mM MgCl2, 1 mM EDTA, 5% [vol/vol] glycerol) with […] 0.007 mM protein mixture (1:1) of purified truncated c-Jun and c-Fos proteins containing DNA-binding domain and leucine zipper and incubated for 30 minutes at room temperature. The EMSA assay was performed as previously described (Luo et al., 2008; Nyland et al., 2010; Kelley et al., 2011; Luo et al., 2012).

T1 sequence (P27695 whole entry, species assumed): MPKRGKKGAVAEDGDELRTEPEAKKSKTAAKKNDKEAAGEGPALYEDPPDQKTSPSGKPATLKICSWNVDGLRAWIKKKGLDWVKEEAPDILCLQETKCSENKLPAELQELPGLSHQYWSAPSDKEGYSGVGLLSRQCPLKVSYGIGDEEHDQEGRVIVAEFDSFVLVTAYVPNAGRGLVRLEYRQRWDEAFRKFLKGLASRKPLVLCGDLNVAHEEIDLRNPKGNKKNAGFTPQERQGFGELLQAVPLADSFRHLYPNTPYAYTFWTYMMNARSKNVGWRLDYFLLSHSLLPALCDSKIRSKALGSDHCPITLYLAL

On to “APE1siRNA: Small interfering RNA to APE1, 5′-GUCUGGUAAGACUGGAGUACC-3′ (SEQ ID NO:1) (chemistry not given here)”, for which the “APE1 expression relative to wildtype expression” value with APE1 [1] is on record as about 20%.

One may read the IC50 as the concentration at which inhibition is half-maximal. What is called half-life is how long it takes for the measured level to halve. A low value points to rapid decline. On to `CCC/C(=C\C1=C(OC)C(=O)c2ccccc2C1=O)C(=O)N(CC)CC` [APX2009, (2E)-2-[(3-methoxy-1,4-dioxo-1,4-dihydronaphthalen-2-yl)methylidene]-N,N-diethylpentanamide], for which the concentration for half-maximal inhibition (IC50) in the data set on NFκB amounted to 7 µM; on APE1 [8], 1 µM. Also, the half-life is 25.8 h in the data set “Pharmacokinetics (PK)” and 2.88 h in data set [2]. For the same molecule, in the data set “Pharmacokinetics (PK)”, the “half-life increase compared to E3330” value was about 7 fold. In addition, the “half-life increase, P450 metabolism analysis” value with human microsomes was determined as 8.7 fold. In addition, in data set [3] (20 μM for 48 hours prior to and throughout the cisplatin treatment (24 hours)), the “effect on cisplatin-induced cell death” value was “blocked”. In data set [3] (10 or 20 μM, 72-hour treatment, oxaliplatin 24 hours), the “protection from oxaliplatin-induced cell killing” value is “protected the sensory neuronal cultures from cell killing”. In addition, the “cell death / cell viability, drug alone” value in data set [3] (24 hours, E3330 10, 20 or 40 μM, APX2009 various concentrations) is recorded as “did not result in a significant reduction in cell viability”. The “APE1 repair (endonuclease) activity” value at APE1 [4] is “stimulation of APE1 repair activity”. Besides, the “effect on cisplatin-induced reduction in capsaicin-evoked CGRP release” value in data set [5] (10 μM, 72 hour treatment, 10 μM cisplatin) is on record as “did not prevent the cisplatin-induced reduction in release”. Also, the “effect on oxaliplatin-induced decrease in CGRP release” value in data set [5] (48 hours prior to and throughout exposure to oxaliplatin for 24 hours) is “prevented the oxaliplatin-induced decrease in CGRP release”. For the same molecule, in [5] (72 hours, E3330 20 μM, APX2009 10 or 20 μM, compared to untreated cells), the “basal (resting) release or release of CGRP stimulated by 30 nM capsaicin, drug alone” value is given as “no significant change”. Moreover, in data set [6] (20 μM for 48 hours prior to and throughout exposure to 10 μM cisplatin), the “effect on cisplatin-induced pH2AX levels (DNA damage)” value is reported as “significantly reduced the levels of pH2AX”. Moreover, in data set [6] (20 μM, 24 and 48 hr treatments of 30 μM oxaliplatin), the “phosphorylation of H2AX after oxaliplatin” value was “significantly reduced the phosphorylation of H2AX”. The “tumor intensity and area in 3D spheroids” value in [7] is “statistical differences were observed for the tumor alone or tumor co-cultured with CAFs”. Also, the “CAF intensity and area in 3D spheroids” value with CAF19 cells is on record as “not significantly affected”.

The values above are taken from US11351130B2, “Prevention and reversal of inflammation induced DNA damage” (Indiana University Research and Technology Corporation, priority 2017, dated 2022).
